# Data reported in patent US5830855A, “Lipodepsipeptides as antifungal and fungicidal agents” (priority 1996, dated 1998).
# Numbered stars: 1 amine (or outer) side, 2 acyl side, 3 side chain; on linkers, the order of the positions; unused ones are H or OH. Bridge positions count the residues as written; N and C are the ends. Square brackets hold non-standard residues; d marks the D form. Peptide text beside a SMILES is read from it. * marks the point of attachment. ξ: configuration not given here. Asp(3S-OH) = N[C@H](C(=O)O)[C@H](O)C(=O)O; Thr(4-Cl) = N[C@H](C(=O)O)[C@H](O)CCl; ξAsp(3ξ-OH) = NC(C(=O)O)C(O)C(=O)O; X3 = O=C(C(N[*:1])C(O)CCl)[*:2]; X1 = CCCCCCCCC[C@@H](O)CC(=O)*; X2 = CCCCCCCCCCCC(O)CC(=O)*; dDab = NCC[C@@H](N)C(=O)O; Dab = NCC[CH](N)C(=O)O; Orn = NCCC[CH](N)C(=O)O; hSer = N[CH](CCO)C(=O)O; Dhb = C/C=C(\N)C(=O)O
# Experiments:
# [1] = test system: lymphocytes (peripheral blood mononuclear cells); assay: Lymphocyte proliferation in the absence of mitogens ([3H]-thymidine incorporation); type: cell-based, human; conditions: SR-E at concentrations of 5.72 μM and lower; FIG. 3
# Protocol: Lipodepsipeptide for Immunosuppression Experiments: SR-E was purified as previously described in Bidwai, A. P., Bachmann, R. C. and Takemoto, J. Y., "Mechanism of action of Pseudomonas syringae phytotoxin syringomycin". Plant Physiol. 83:39-43 (1987). A stock solution (10 mg per ml) was prepared in RPMI1640 culture media, aliquoted and stored frozen at -20°.
# Mitogen-induced lymphocyte proliferation: Peripheral blood mononuclear cells (MNC) (containing lymphocytes and monocytes) were separated by Ficoll-Hypaque density-gradient centrifugation using techniques well known in the art. Mitogen-induced lymphocyte proliferation was determined as previously described in Singh, V. K., "Stimulatory effect of corticotropin-releasing neurohormone on human lymphocyte proliferation and interleukin-2 receptor expression". J.Neuroimmunol.23.257-262 (1989). Briefly, MNC were cultured in triplicate in 96-well microtiter plates (Corning, Inc.). […]
# [^3 H]-thymadine Incorporation: Cells were pulse-labeled for 4 hours with 0.5 μCi/well of [^3 H]methyl-thymidine (spec. act.=25 Ci/mmol from Amersham Intl.). […] To each vial, 2 ml of CytoScint fluid (ICN Biomedicals) was dispensed and the radioactivity determined using a liquid scintillation counter (Tri-Carb, Packard). The rate of [^3 H]-thymidine incorporation by MNC was calculated as counts per minute per 10 ^5 cells.
# Sheep erythrocytes = assay: Erythrocyte toxicity (sheep RBC hemolysis, hemoglobin release); type: cell-based; conditions: 37° C. 1 hr, FIG. 1 and 2
# Protocol: Erythrocyte Toxicity: Sheep red blood cell (RBC) hemolysis was used to assess erythrocyte toxicity of the CLPs and AmB. RBCs (MicroBio Products, Inc., Salt Lake City, Utah) were washed four times with phosphate-buffered-saline (PBS) by centrifugation at 800× g for 10 min and adjusted to 1×10^8 cells/ml as previously described by Chavanet, P., V. Joly, D. Rigaud, J. Bolard, C. Carbon, and P. Yeni. 1994. Influence of diet on experimental toxicity of amphotericin B deoxycholate. Antimicrob. Agents Chemother. 38(5):963-968. RBCs and a 2× concentration of SR-E, ST-B or SS-A in PBS were mixed in a 1:1 ratio and incubated at 37° C. for 1 hr. After incubation, cells were pelleted by centrifugation at 800× g for 10 min and the supernatant was collected and the absorbance at 550 nm was determined. […] Distilled water and PBS were used as lysis and hemoglobin retention controls, respectfully, as described by National Committee for Clinical Laboratory Standards. 1992. Reference method for broth dilution antifungal susceptibility testing of yeasts; proposed standard, NCCLS document M27-P (ISBN 1-56238-186-5). NCCLS, Villanova.
# [2] = test system: clinical isolates (fungi); assay: Broth microdilution MIC, fungal isolates overall; type: cell-based; conditions: summary range over the fungi tested
# Excerpt: Most of the fungal strains used in the tests were clinical isolates obtained from the University of Texas Health Science Center at San Antonio Fungus Testing Laboratory (San Antonio, Tex.) and the remaining isolates were ATCC strains.
# (§1) Medium: Liquid RPMI 1640 (RPMI) medium with L-glutamine and without sodium bicarbonate (Sigma Chemical Co., R-6504; St. Louis, Mo.) buffered with 0.165M MOPS (34.54 g/liter) was used for in vitro antifungal tests. The medium was adjusted to pH 7.0 with 10M NaOH and filter sterilized.
# Lipodepsipeptide Dilutions: All stock drug solution concentrations were at least 10-fold higher than the highest concentration tested. […]
# Preparation of Inoculum Suspensions: On Sabouraud dextose agar (SDA; BBL, Becton and Dickinson and Co., Cockeysville, Md.) all isolates were subcultured at least twice before use to ensure purity and viability. […] The turbidity of each mixed suspension was measured at 530 nm and adjusted to 1×10^6 to 5×10^6 CFU/ml by the NCCLS spectrophotometric method described by National Committee for Clinical Laboratory Standards. […]
# Aspergillus fumigatus and Mucor spp. were grown for 1 wk at 35° C. […] The stock suspensions of all filamentous fungi were measured at 530 nm and adjusted to 85-87% transmission. The concentration (1×10^6 to 5×10^6 CFU/ml) was determined by hemacytometer count or plate count on SDA. […]
# Mucor spp. = assay: Broth microdilution MIC; type: cell-based; conditions: Table 1 (MICs), 5 isolates, 48 hr
# Protocol: as §1
# Lipodepsipeptide Dilutions: All stock drug solution concentrations were at least 10-fold higher than the highest concentration tested. AmB, ketoconazole, and the test compounds (SR-E, ST-B, and SS-A) were dissolved in sterile distilled water, 0.2N HCl, and 0.001N HCl, respectively. Each stock solution was diluted to 2× the highest concentration of drug tested with RPMI. Two-fold dilutions were made with RPMI medium.
# Preparation of Inoculum Suspensions: On Sabouraud dextose agar (SDA; BBL, Becton and Dickinson and Co., Cockeysville, Md.) all isolates were subcultured at least twice before use to ensure purity and viability. Candida spp. and Saccharomyces cerevisiae were grown for 24 hr at 35° C. Isolates of Cryptococcus neoformans were grown for 48 hr at 35° C. Yeast cells from at least five 1-mm-diameter colonies were suspended in 5 ml of sterile 0.85% saline. The resulting suspension was vortexed for 15 sec. The turbidity of each mixed suspension was measured at 530 nm and adjusted to 1×10^6 to 5×10^6 CFU/ml by the NCCLS spectrophotometric method described by National Committee for Clinical Laboratory Standards. 1992. Reference method for broth dilution antifungal susceptibility testing of yeasts; proposed standard, NCCLS document M27-P (ISBN 1-56238-186-5). NCCLS, Villanova. The final transmission of each yeast suspension ranged from 85-87%.
# Aspergillus fumigatus and Mucor spp. were grown for 1 wk at 35° C. The dermatophytes, Microsporum spp. and Trichophyton spp., were grown for two wk at 30° C. Fungal spores were washed from the plates of all good spore formers (A. fumigatus, Mucor spp., Microsporum canis and Trichophyton spp.) by placing 5 ml of 0.85% saline with 0.2% Tween 80 on the plates and mixing with an inoculating loop. The spore/mycelium suspension was drawn off with a pipette and allowed to settle for at least 5 min. For the poor spore-forming Microsporum audouinii, the procedure was the same except the spore/mycelial suspension was homogenized with a ground glass tissue homogenizer and then allowed to settle for at least 5 min. A small amount of the supernatant was transferred to 5 ml of sterile saline and vortexed. The stock suspensions of all filamentous fungi were measured at 530 nm and adjusted to 85-87% transmission. The concentration (1×10^6 to 5×10^6 CFU/ml) was determined by hemacytometer count or plate count on SDA. All stock suspensions were diluted 1000-fold with RPMI, or 2× the final desired test inocula. The 2× inoculum was diluted 1:1 when the wells were inoculated, and the desired inoculum size was achieved.
# Broth Microdilution Test: Broth microdilution tests were performed using sterile, disposable, multiwell microdilution plates (96 round U-bottom wells) (Falcon 3077; Becton and Dickinson Labware, Lincoln Park, N.J.). The drugs (2× concentrations) were dispensed into the wells of rows number 1 to 10 of the microdilution plates in 100 μl volumes from highest drug concentration to lowest drug concentration. Each well was inoculated with 100 μl of the corresponding 2× concentrated fungal suspension. The wells of row 11 contained the inoculum with drug-free media as a positive growth control and the wells of row 12 contained uninoculated-drug-free medium as a sterility control.
# Incubation and Scoring of MIC: All cultures were incubated without shaking at the temperature used during subculture. Incubation times were 48 hr for Candida spp., S. cerevisiae, A. fumigatus, and Mucor spp; 72 hr for C. neoformans; and 7 days for Microsporum and Trichophyton spp. […]
structure (smiles),measurement,setting,value
"C/C=C1\NC(=O)[C@H](Cc2ccccc2)NC(=O)[C@H](CCCN=C(N)N)NC(=O)[C@@H](CCN)NC(=O)[C@H](CCN)NC(=O)[C@@H](CO)NC(=O)[C@@H](NC(=O)C[C@H](O)CCCCCCCCC)COC(=O)[C@H]([C@H](O)CCl)NC(=O)[C@H]([C@H](O)C(=O)O)NC1=O [SR-E, Syringomycin-E] (X1-S[dS][Dab][dDab]RF[Dhb][Asp(3S-OH)][Thr(4-Cl)]; ester 1-C)",effect on cell proliferation in the absence of mitogens ([3H]-thymidine incorporation),[1],no effect
"C/C=C1\NC(=O)C(C(C)O)NC(=O)C(CCCN)NC(=O)C(CCO)NC(=O)CNC(=O)C(CCN)NC(=O)C(NC(=O)CC(O)CCCCCCCCCCC)COC(=O)C(C(O)CCl)NC(=O)C(C(O)C(=O)O)NC1=O (stereo not shown) [ST-B, Syringotoxin B] (X2-S[Dab]G[hSer][Orn]T[Dhb][ξAsp(3ξ-OH)][X3]; ester 1-C; configuration not given here)","erythrocyte toxicity (lysis, hemoglobin release)",Sheep erythrocytes,least toxic of the three CLPs
same,antifungal activity (overall range),[2],0.8 to 200 g/mL
same,MIC range,Mucor spp.,6.25 to 100 µg/mL
